# Reference: ChEMBL document CHEMBL5329212, “In situ click chemistry-based discovery of 1,2,3-triazole-derived diarylpyrimidines as novel HIV-1 NNRTIs by exploiting the tolerant region I in binding pocket” (Bioorg Med Chem, 2023)
# Columns and labels:
# [1] = tested on: Human immunodeficiency virus 1; assay: Antiviral activity against wild type HIV-1 IIIB infected in human MT4 cells assessed as protection against virus-induced cytopathic effect measured after 5 days by MTT assay; assay type: functional, organism-based; details: Human immunodeficiency virus 1, IIIB, MT4, 120 h
# [2] = tested on: Human immunodeficiency virus 1; assay: Antiviral activity against HIV-1 harboring RT L100I mutant infected in human MT4 cells assessed as protection against virus-induced cytopathic effect measured after 5 days by MTT assay; assay type: functional, organism-based; details: Human immunodeficiency virus 1, MT4, 120 h
# [3] = tested on: Human immunodeficiency virus 1; assay: Antiviral activity against HIV-1 harboring RT K103N mutant infected in human MT4 cells assessed as protection against virus-induced cytopathic effect measured after 5 days by MTT assay; assay type: functional, organism-based; details: Human immunodeficiency virus 1, MT4, 120 h
# [4] = tested on: Human immunodeficiency virus 1; assay: Antiviral activity against HIV-1 harboring RT Y181C mutant infected in human MT4 cells assessed as protection against virus-induced cytopathic effect measured after 5 days by MTT assay; assay type: functional, organism-based; details: Human immunodeficiency virus 1, MT4, 120 h
# [5] = tested on: Human immunodeficiency virus 1; assay: Antiviral activity against HIV-1 harboring RT Y188L mutant infected in human MT4 cells assessed as protection against virus-induced cytopathic effect measured after 5 days by MTT assay; assay type: functional, organism-based; details: Human immunodeficiency virus 1, MT4, 120 h
# [6] = tested on: Human immunodeficiency virus 1; assay: Antiviral activity against HIV-1 harboring RT E138K mutant infected in human MT4 cells assessed as protection against virus-induced cytopathic effect measured after 5 days by MTT assay; assay type: functional, organism-based; details: Human immunodeficiency virus 1, MT4, 120 h
# [7] = tested on: Human immunodeficiency virus 1; assay: Antiviral activity against HIV-1 harboring RT F227L/V106A double mutant infected in human MT4 cells assessed as protection against virus-induced cytopathic effect measured after 5 days by MTT assay; assay type: functional, organism-based; details: Human immunodeficiency virus 1, MT4, 120 h
# [8] = tested on: Human immunodeficiency virus 1; assay: Antiviral activity against HIV-1 harboring RT RES056 mutant infected in human MT4 cells assessed as protection against virus-induced cytopathic effect measured after 5 days by MTT assay; assay type: functional, organism-based; details: Human immunodeficiency virus 1, MT4, 120 h
# [9] = Cytotoxicity against human MT4 cells assessed as reduction in cell viability measured after 5 days by MTT assay; assay type: toxicity, cell-based; details: time 5 day
# [10] = Half life in Wistar rat at 2 mg/kg, iv measured upto 8 hrs by LC-MS/MS analysis; assay type: ADME, organism-based; details: in vivo
# [11] = molecular target: Human immunodeficiency virus type 1 reverse transcriptase (Human immunodeficiency virus 1) (UniProt Q72547); assay: Inhibition of HIV-1 reverse transcriptase at 0.267 uM incubated for 1 hrs in presence of biotin-labeled dNTPs by ELISA assay relative to control
# [12] = molecular target: Human immunodeficiency virus type 1 reverse transcriptase (Human immunodeficiency virus 1, UniProt Q72547); assay: Inhibition of HIV-1 reverse transcriptase incubated for 1 hrs in presence of biotin-labeled dNTPs by ELISA assay
Structure (SMILES),half-life [10] [min],inhibition [11] [%],EC50 [1] [nM],EC50 [2] [nM],EC50 [3] [nM],EC50 [4] [µM],EC50 [5] [µM],EC50 [6] [nM],EC50 [7] [µM],EC50 [8] [µM],CC50 at 120 h [9] [µM],IC50 [12] [nM]
Cc1ccnc2c1NC(=O)c1cccnc1N2C1CC1 [NEVIRAPINE],,,100,1450,4930,5.66,> 951,130,> 951,> 951,> 951,
Cc1cc(C#N)cc(C)c1Oc1nc(Nc2ccc(-c3cn(Cc4ccc(S(C)(=O)=O)cc4)nn3)cc2)nc2ccsc12,,51.9,40,2160,60,20,124,140,110,≥ 104,> 206,410
Cc1cc(C#N)cc(C)c1Oc1nc(Nc2ccc(-c3cn(CC(=O)Nc4ccc(C(F)(F)F)cc4)nn3)cc2)nc2ccsc12,,43.8,2060,2500,2830,5.5,17.5,6680,18.7,23.4,> 195,2730
Cc1cc(C#N)cc(C)c1Oc1nc(Nc2ccc(-c3cn(-c4ccc5c(c4)OCO5)nn3)cc2)nc2ccsc12,,50,1800,10900,2010,69.4,165,7170,77.8,> 223,> 223,1050
Cc1cn([C@H]2C[C@H](N=[N+]=[N-])[C@@H](CO)O2)c(=O)[nH]c1=O [ZIDOVUDINE],,,30,,30,0.03,0.03,40,0.02,0.03,> 749,
Cc1cc(C#N)cc(C)c1Oc1nc(Nc2ccc(-c3cn(Cc4ccc(Cl)cc4)nn3)cc2)nc2ccsc12,,44.7,550,73200,1110,202,> 222,1080,106,> 222,> 222,320
Cc1cc(C#N)cc(C)c1Oc1nc(Nc2ccc(-c3cn(-c4ccc(C(N)=O)cc4)nn3)cc2)nc2ccsc12,,66.9,150,> 164000,250,> 164,> 164,920,> 164,> 164,164,800

# More lines, main results first:
half-life [10] [min],inhibition [11] [%],Structure (SMILES),EC50 [1] [nM],EC50 [2] [nM],EC50 [3] [nM],EC50 [4] [µM],EC50 [5] [µM],EC50 [6] [nM],EC50 [7] [µM],EC50 [8] [µM],CC50 at 120 h [9] [µM],IC50 [12] [nM]
54,,Cc1cc(C#N)cc(C)c1Oc1nc(NC2CCN(Cc3ccc(S(N)(=O)=O)cc3)CC2)nc2scnc12,,,,,,,,,,
,12.8,Cc1cc(C#N)cc(C)c1Oc1nc(Nc2ccc(-c3cn(CC(=O)N4CCCC4)nn3)cc2)nc2ccsc12,,,,,,,,,,
,21,Cc1cccc(Cn2cc(-c3ccc(Nc4nc(Oc5c(C)cc(C#N)cc5C)c5sccc5n4)cc3)nn2)c1,,,,,,,,,,
,1.9,Cc1cc(C#N)cc(C)c1Oc1nc(Nc2ccc(-c3cn(CCc4ccsc4)nn3)cc2)nc2ccsc12,,,,,,,,,,
,28,COc1ccc(-n2cc(-c3ccc(Nc4nc(Oc5c(C)cc(C#N)cc5C)c5sccc5n4)cc3)nn2)cc1,,,,,,,,,,
,0.1,Cc1cc(C#N)cc(C)c1Oc1nc(Nc2ccc(-c3cn(-c4cc5ccccc5s4)nn3)cc2)nc2ccsc12,,,,,,,,,,
,36.9,Cc1cc(C#N)cc(C)c1Oc1nc(Nc2ccc(-c3cn(Cc4ccc(C#N)cc4)nn3)cc2)nc2ccsc12,,,,,,,,,,
